Experimental data reported in patent publication US9216968B2, “Heterocyclic derivative and pharmaceutical drug” (NIPPON SHINYAKU CO., LTD., priority 2011, dated 2015).
Counter-ions that a name gives are not always drawn.

Tests used:
[1] = tested on: A549 cells; assay: Inhibition of PGE2 production in A549 cell (IL-1β stimulated); assay type: cell-based, human; settings: Homo sapiens, A549, 24 h, IL-1β 5 ng/well, PGE2 in culture medium
In short: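 After IL-1β (5 ng/well) stimulation for 24 h at 37 °C, following a 60-min compound pretreatment in RPMI with 3% FBS, medium PGE2 (HTRF) and PGF2α (EIA) from human A549 cells were quantified. 100% activity set as IL-1β-induced minus basal production; IC50 calculated.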

[2] = biological target: human mPGES-1 (Homo sapiens (Human), UniProt O14684); assay: mPGES-1 inhibiting activity (microsome fractions, PGE2 by HTRF); assay type: biochemical; settings: microsomes from CHO-K1 cells transfected with human mPGES-1; PGH2 1 μM, 4° C., 60 seconds; read-out: mPGES-1 Inhibition IC50
Sequence of human mPGES-1 (O14684 whole entry): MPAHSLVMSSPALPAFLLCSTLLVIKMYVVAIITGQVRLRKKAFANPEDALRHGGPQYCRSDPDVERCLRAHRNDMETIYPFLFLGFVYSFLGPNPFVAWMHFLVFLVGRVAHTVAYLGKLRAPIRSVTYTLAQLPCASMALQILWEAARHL
In short: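 PGE2 formation read by HTRF after 60 s at 4 °C with 1 μM PGH2 substrate, following 20 min compound preincubation (1% DMSO) with human mPGES-1 microsomes from transfected CHO-K1 cells. Buffer: potassium phosphate, reduced glutathione, pH 7.4; IC50 from activity relative to enzyme-free blank.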

IC50 [1] [µM] | IC50 [2] [µM] | Structure (SMILES)
0.0879 | 0.0115 | COCc1nc2c(C(=O)Nc3cccc(Cl)c3C)cc(NC(=O)c3cc(C)ccc3Cl)cc2[nH]1 [Example 108, N-(3-Chloro-2-methylphenyl)-6-{[(2-chloro-5-methylphenyl)carbonyl]amino}-2-(methoxymethyl)-1H-benzimidazole-4-carboxamide hydrochloride]
0.0087 | 0.0078 | COCc1nc2c(C(=O)Nc3cccc(Cl)c3C)cc(NC(=O)c3cc(C)ccc3C(F)(F)F)cc2[nH]1 [Example 109, N-(3-Chloro-2-methylphenyl)-2-(methoxymethyl)-6-({[5-methyl-2-(trifluoromethyl)phenyl]carbonyl}amino)-1H-benzimidazole-4-carboxamide hydrochloride]
0.0355 | 0.0026 | COCc1nc2c(C(=O)Nc3cccc(Cl)c3C)cc(NC(=O)c3cc(C(F)(F)F)ccc3C(F)(F)F)cc2[nH]1 [Example 110, 6-({[2,5-Bis(trifluoromethyl)phenyl]carbonyl}amino)-N-(3-chloro-2-methylphenyl)-2-(methoxymethyl)-1H-benzimidazole-4-carboxamide hydrochloride]
0.187 | 0.0026 | COCc1nc2c(C(=O)Nc3cccc(Cl)c3C)cc(NC(=O)c3cc(F)ccc3C(F)(F)F)cc2[nH]1 [Example 112, N-(3-Chloro-2-methylphenyl)-6-({[5-fluoro-2-(trifluoromethyl)phenyl]carbonyl}amino)-2-(methoxymethyl)-1H-benzimidazole-4-carboxamide hydrochloride]
0.0012 | ≤ 0.0001 | COCc1nc2c(C(=O)Nc3cccc(Cl)c3C)cc(NC(=O)c3c(Cl)cccc3C(F)(F)F)cc2[nH]1 [Example 113, N-(3-Chloro-2-methylphenyl)-6-({[2-chloro-6-(trifluoromethyl)phenyl]carbonyl}amino)-2-(methoxymethyl)-1H-benzimidazole-4-carboxamide hydrochloride]
0.0088 | 0.0035 | COCc1nc2c(C(=O)Nc3cccc(Cl)c3C)cc(NC(=O)c3cc(OCCOC(C)C)ccc3Cl)cc2[nH]1 [Example 114, N-(3-Chloro-2-methylphenyl)-6-[({2-chloro-5-[2-(propan-2-yloxy)ethoxy]phenyl}carbonyl)amino]-2-(methoxymethyl)-1H-benzimidazole-4-carboxamide hydrochloride]
0.037 | 0.0115 | CCOCCOc1ccc(Cl)c(C(=O)Nc2cc(C(=O)Nc3cccc(Cl)c3C)c3nc(COC)[nH]c3c2)c1 [Example 115, 6-({[2-Chloro-5-(2-ethoxyethoxy)phenyl]carbonyl}amino)-N-(3-chloro-2-methylphenyl)-2-(methoxymethyl)-1H-benzimidazole-4-carboxamide hydrochloride]
0.252 | 0.0097 | COCCCc1ccc(Cl)c(C(=O)Nc2cc(C(=O)Nc3cccc(Cl)c3C)c3nc(COC)[nH]c3c2)c1 [Example 116, 6-({[2-Chloro-5-(3-methoxypropyl)phenyl]carbonyl}amino)-N-(3-chloro-2-methylphenyl)-2-(methoxymethyl)-1H-benzimidazole-4-carboxamide hydrochloride]
0.513 | 0.0575 | CCOCc1ccc(Cl)c(C(=O)Nc2cc(C(=O)Nc3cccc(Cl)c3C)c3nc(COC)[nH]c3c2)c1 [Example 120, 6-({[2-Chloro-5-(ethoxymethyl)phenyl]carbonyl}amino)-N-(3-chloro-2-methylphenyl)-2-(methoxymethyl)-1H-benzimidazole-4-carboxamide]
0.432 | 0.0063 | CCOCCOCc1ccc(Cl)c(C(=O)Nc2cc(C(=O)Nc3cccc(Cl)c3C)c3nc(COC)[nH]c3c2)c1 [Example 121, 6-[({2-Chloro-5-[(2-ethoxyethoxy)methyl]phenyl}carbonyl)amino]-N-(3-chloro-2-methylphenyl)-2-(methoxymethyl)-1H-benzimidazole-4-carboxamide hydrochloride]
> 1 | 0.0097 | COCc1nc2c(C(=O)Nc3cccc(Cl)c3C)cc(NC(=O)c3cc(CCC4CC4)ccc3Cl)cc2[nH]1 [Example 122, 6-({[2-Chloro-5-(2-cyclopropylethyl)phenyl]carbonyl}amino)-N-(3-chloro-2-methylphenyl)-2-(methoxymethyl)-1H-benzimidazole-4-carboxamide]
0.0998 | 0.0087 | COCc1nc2c(C(=O)Nc3cccc(Cl)c3C)cc(NC(=O)c3cc(CCc4ccccc4)ccc3Cl)cc2[nH]1 [Example 123, N-(3-Chloro-2-methylphenyl)-6-({[2-chloro-5-(2-phenylethyl)phenyl]carbonyl}amino)-2-(methoxymethyl)-1H-benzimidazole-4-carboxamide hydrochloride]
0.0032 | 0.0022 | Cc1c(Cl)cccc1NC(=O)c1cc(NC(=O)c2ccccc2C(F)(F)F)cc2[nH]c(C3CCCC3)nc12 [Example 124, N-(3-Chloro-2-methylphenyl)-2-cyclopentyl-6-({[2-(trifluoromethyl)phenyl]carbonyl}amino)-1H-benzimidazole-4-carboxamide hydrochloride]
0.0569 | 0.0256 | Cc1c(Cl)cccc1NC(=O)c1cc(NC(=O)c2cc(Cl)ccc2Cl)cc2[nH]c(C3CCCC3)nc12 [Example 125, N-(3-Chloro-2-methylphenyl)-2-cyclopentyl-6-{[(2,5-dichlorophenyl)carbonyl]amino}-1H-benzimidazole-4-carboxamide hydrochloride]
0.0131 | 0.0056 | Cc1c(Cl)cccc1NC(=O)c1cc(NC(=O)c2c(F)cccc2Cl)cc2[nH]c(C3CCCC3)nc12 [Example 126, 6-{[(2-Chloro-6-fluorophenyl)carbonyl]amino}-N-(3-chloro-2-methylphenyl)-2-cyclopentyl-1H-benzimidazole-4-carboxamide hydrochloride]
0.144 | 0.0063 | Cc1c(Cl)cccc1NC(=O)c1cc(NC(=O)c2c(F)cccc2Cl)cc2[nH]c([C@H]3CCCO3)nc12 [Example 127, 6-{[(2-Chloro-6-fluorophenyl)carbonyl]amino}-N-(3-chloro-2-methylphenyl)-2-[(2R)-tetrahydrofuran-2-yl]-1H-benzimidazole-4-carboxamide hydrochloride]
0.253 | 0.001 | Cc1c(Cl)cccc1NC(=O)c1cc(NC(=O)c2c(Cl)cccc2Cl)cc2[nH]c([C@H]3CCCO3)nc12 [Example 128, N-(3-Chloro-2-methylphenyl)-6-{[(2,6-dichlorophenyl)carbonyl]amino}-2-[(2R)-tetrahydrofuran-2-yl]-1H-benzimidazole-4-carboxamide hydrochloride]
0.178 | 0.0594 | Cc1c(Cl)cccc1NC(=O)c1cc(NC(=O)c2cc(Cl)ccc2Cl)cc2[nH]c([C@H]3CCCO3)nc12 [Example 129, N-(3-Chloro-2-methylphenyl)-6-{[(2,5-dichlorophenyl)carbonyl]amino}-2-[(2R)-tetrahydrofuran-2-yl]-1H-benzimidazole-4-carboxamide hydrochloride]
> 10 | 0.0039 | Cc1c(Cl)cccc1NC(=O)c1cc(NC(=O)c2ccccc2C(F)(F)F)cc2[nH]c([C@@H]3CCC(=O)N3)nc12 [Example 130, N-(3-Chloro-2-methylphenyl)-2-[(2S)-5-oxopyrrolidin-2-yl]-6-({[2-(trifluoromethyl)phenyl]carbonyl}amino)-1H-benzimidazole-4-carboxamide hydrochloride]
> 10 | 0.0328 | Cc1c(Cl)cccc1NC(=O)c1cc(NC(=O)c2ccccc2C(F)(F)F)cc2[nH]c([C@H]3CCC(=O)N3)nc12 [Example 131, N-(3-Chloro-2-methylphenyl)-2-[(2R)-5-oxopyrrolidin-2-yl]-6-({[2-(trifluoromethyl)phenyl]carbonyl}amino)-1H-benzimidazole-4-carboxamide hydrochloride]
0.59 | 0.0022 | Cc1c(Cl)cccc1NC(=O)c1cc(NC(=O)c2ccccc2C(F)(F)F)cc2[nH]c(CC(=O)N3CCCC3)nc12 [Example 132, N-(3-Chloro-2-methylphenyl)-2-[2-oxo-2-(pyrrolidin-1-yl)ethyl]-6-({[2-(trifluoromethyl)phenyl]carbonyl}amino)-1H-benzimidazole-4-carboxamide hydrochloride]
0.487 | 0.007 | Cc1c(Cl)cccc1NC(=O)c1cc(NC(=O)c2ccccc2C(F)(F)F)cc2[nH]c(CC(=O)N(C)C)nc12 [Example 133, N-(3-Chloro-2-methylphenyl)-2-[2-(dimethylamino)-2-oxoethyl]-6-({[2-(trifluoromethyl)phenyl]carbonyl}amino)-1H-benzimidazole-4-carboxamide hydrochloride]
0.921 | 0.0103 | CNC(=O)Cc1nc2c(C(=O)Nc3cccc(Cl)c3C)cc(NC(=O)c3ccccc3C(F)(F)F)cc2[nH]1 [Example 134, N-(3-Chloro-2-methylphenyl)-2-[2-(methylamino)-2-oxoethyl]-6-({[2-(trifluoromethyl)phenyl]carbonyl}amino)-1H-benzimidazole-4-carboxamide hydrochloride]

Structure (SMILES) | IC50 [1] [µM] | IC50 [2] [µM]
COCc1nc2c(C(=O)Nc3cccc(Cl)c3C)cc(NC(=O)c3cc(CCCOC(C)(C)C)ccc3Cl)cc2[nH]1 [Example 118, 6-({[5-(3-tert-Butoxypropyl)-2-chlorophenyl]carbonyl}amino)-N-(3-chloro-2-methylphenyl)-2-(methoxymethyl)-1H-benzimidazole-4-carboxamide hydrochloride] | 0.0053 | 0.0073
